{"source": "patent US20170260169A1", "about": "“INHIBITORS FOR STEROID RESPONSE ELEMENTS AND RNA POLYMERASE II AND RELATED METHODS” (priority 2007, published 2017)", "key": {"[1]": {"experiment": "Serum circulation after subcutaneous injection in C57BL/6 mice", "format": "in vivo", "conditions": "120 nmol, 5% DMSO/PBS", "description": "To investigate if polyamide 77 could be detected in peripheral blood after SC injections, 120 nmol of 77 (in 5% DMSO/PBS) was injected into the right flank of four C57BL/6 mice. Blood was collected from anesthetized mice via retroorbital collection at 5 minutes, 4 h, and 12 h after injection, then processed by methods previously described and analyzed by HPLC (35). For measurement of serum PSA (KLK3) and uric acid, blood was collected from anesthetized mice via retroorbital collection at experimental endpoint and serum was separated from blood by centrifugation. Serum PSA (KLK3) was measured by ELISA (R&D systems) according to manufacturer's instructions. Uric acid was measured as described (36).\nWe synthesized four structurally related polyamides (FIG. 28) that have an identical Py-Im sequence ImPyPyPy-γ-ImPyPyPy-NHMe-IPA."}, "[2]": {"system": "duplex DNA containing the target site 5′-WGWWCW-3′", "experiment": "Thermal denaturation assay of DNA duplexes", "format": "binding", "conditions": "duplex 5′-CGATGTTCAAGC-3′", "description": "Polyamides 77 and 85 were incubated with duplex DNA 5′-[…]-3′ (SEQ ID NO:36), which contains the predicted target site for these compounds (underscore). Melting temperature analyses were performed on a Varian Cary 100 spectrophotometer as described (46). Melting temperatures were defined as a maximum of the first derivative of absorbance at 260 nm over the range of temperatures.\nThermal stabilization of the DNA oligo 5′-[…]-3′ (SEQ ID NO:37) by 77-80 (target sequence underlined) was determined as previously described (26)."}, "[3]": {"system": "AR occupancy at the PSA promoter and enhancer", "experiment": "Chromatin immunoprecipitation with anti-AR, PSA promoter and enhancer", "format": "cell-based", "description": "LNCaP cells were plated in 15-cm diameter plates at a density of 2×10^6 cells per plate. Media, polyamide treatment, time course, and DHT stimulation were the same as described above. After the 16-h DHT treatment, cells were treated with 1% formaldehyde for 10 min. Chromatin was isolated and sheared. Antibodies to AR (AR-20, Santa Cruz Biotechnology, Santa Cruz, Calif.) were used to immunoprecipitate AR-bound DNA fragments. Crosslinks were reversed, and PCRs using primers targeted to the regions of interest were used to assess enrichment of bound fragments as compared with mock-precipitated (no antibody) controls. PCRs were monitored with SYBR Green PCR Master Mix (Applied Biosystems) on an ABI 7300 instrument. Primer sequences and a more detailed experimental protocol are available upon request."}, "p53 target genes": {"system": "p53 target genes", "experiment": "Quantitative RT-PCR of p53 target genes in LNCaP cells", "format": "cell-based", "description": "(§1) RNA was extracted using RNEasy columns (Qiagen) according to manufacturer's protocols. cDNA was generated from RNA by reverse transcriptase (Transcriptor First Strand cDNA kit, Roche). Quantitative real-time RT-PCR was performed using SYBR Green PCR Master Mix (Applied Biosystems) on an ABI 7300 instrument. mRNA was measured relative to B glucuronidase as an endogenous control.\nThe cells were then treated with 1, 3, and 10 μM of 78 for 72 h. Total cellular RNA was extracted using RNEasy columns (Qiagen) following the manufacturer's protocols. Isolated RNA was reverse transcribed with Transcriptor First Strand cDNA kit (Roche). Quantitative real-time PCR was performed using SYBR Green PCR Master Mix (Applied Biosystems) on an ABI 7300 instrument. Amplification of p21, IGFBP3, and GADD45A cDNA was measured relative to β-glucuronidase using previously published primers (24). Experiments were performed in biological replicates."}, "RPB1 mRNA": {"system": "RPB1 mRNA", "experiment": "Quantitative RT-PCR of RPB1 transcript in LNCaP cells", "format": "cell-based", "conditions": "10 μM", "description": "as §1"}, "RNAP2 genomic occupancy": {"system": "RNAP2 genomic occupancy", "experiment": "ChIP-seq of RNA polymerase II occupancy in LNCaP cells", "format": "cell-based, human"}, "[4]": {"system": "AR occupancy at the FKBP5 intronic enhancer", "experiment": "Chromatin immunoprecipitation with anti-AR, FKBP5 fifth intron enhancer", "format": "cell-based", "conditions": "10 μM"}, "GILZ enhancer GRE1": {"system": "GILZ enhancer GRE1", "experiment": "Quantitative DNase I footprint titration on pKAM5 fragment, GRE1", "format": "binding", "description": "Detailed experimental protocols are reported elsewhere (44). The GILZ enhancer contains two GREs separated by 22 base pairs (46). GRE 1 is 5'-[NT]=3' (SEQ ID NO:5) and GRE 2 is […] ID NO:7). The DNA binding of polyamides 1 and 2 on these sequences was measured by quantitative DNase I footprint. […] […])."}, "[5]": {"experiment": "Multiple-dose subcutaneous injections, male C57BL/6J mice", "format": "in vivo", "conditions": "1 mg/kg SC every 3 days", "summary_of_the_method": "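Eight-week-old male C57BL/6J mice (n=3 per group) received 1 mg/kg polyamide subcutaneously every 3 days for three injections and were sacrificed two days after the last dose. Serum was collected by retroorbital bleeding for analysis, and two mice per group underwent histopathology.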"}, "[6]": {"system": "PSA protein secretion by LNCaP cells", "experiment": "Secreted PSA protein by ELISA, LNCaP cells", "format": "cell-based", "conditions": "after DHT stimulation, compared with 2 or untreated control", "description": "LNCaP cells (ATCC) were plated in 24-well plates at a density of 40-50×10^3 cells per well (80-100×10^3 cells per ml) in RPMI medium 1640 (ATCC) supplemented with 10% FBS (Irvine Scientific, Santa Ana, Calif.). After 72 h, the medium was replaced with RPMI medium 1640 containing 10% charcoal stripped FBS with or without polyamides at the designated concentrations. Cells were grown for an additional 48 h and then treated with 1 nM DHT for 16 h. When appropriate, bicalutamide was added 2 h before DHT stimulation. Isolation of RNA and cDNA synthesis was performed as described (21). Quantitative real-time RT-PCR was performed with SYBR Green PCR Master Mix (Applied Biosystems, Foster City, Calif.) on an ABI 7300 instrument. PSA mRNA was measured relative to β-glucuronidase as an endogenous control. Primer sequences are available upon request. Cell-culture supernatants were collected for an ELISA (R & D Systems, Minneapolis, Minn.) to measure PSA protein according to the manufacturer's protocol."}, "[7]": {"system": "transcripts in DHT-stimulated LNCaP cells", "conditions": "previous studies (12); cited from earlier work"}}}
{"smiles": "CN(CCCNC(=O)c1cccc(C(=O)O)c1)CCCNC(=O)c1cc(NC(=O)c2cc(NC(=O)c3cc(NC(=O)c4nc(NC(=O)[C@H](N)CCNC(=O)c5cc(NC(=O)c6cc(NC(=O)c7cc(NC(=O)c8nccn8C)cn7C)cn6C)cn5C)cn4C)cn3C)cn2C)cn1C", "note": "[Polyamide 1, ImPyPyPy-2-(R)H^2Nγ-ImPyPyPy-NHMe-IPA]", "values": [{"measurement": "circulation after SC injection", "setting": "[1]", "value": "detectable circulation"}, {"measurement": "DNA thermal stability analysis", "setting": "[2]", "value": "comparable DNA binding"}, {"measurement": "occupancy of AR at the PSA promoter and enhancer", "setting": "[3]; 1 μM as printed", "value": "decreased occupancy"}, {"measurement": "AR occupancy at the PSA promoter and enhancer", "setting": "[3]; 10 μM, FIG. 9 legend", "value": "decreased"}, {"measurement": "induction of p53 target genes", "setting": "p53 target genes", "value": "induced expression of p53 genes"}, {"measurement": "expression of RPB1 mRNA", "setting": "RPB1 mRNA", "value": "modestly increased"}, {"measurement": "RNAP2 occupancy at enhancer loci", "setting": "RNAP2 genomic occupancy; DHT + 77", "value": "did not significantly change"}, {"measurement": "RNAP2 occupancy across genic regions", "setting": "RNAP2 genomic occupancy; DHT + 77, 48 h", "value": "global decrease of RNAP2 occupancy across genic regions"}, {"measurement": "occupancy of AR at the FKBP5 intronic enhancer", "setting": "[4]", "value": "decreased occupancy"}, {"measurement": "Ka", "setting": "GILZ enhancer GRE1", "value": "1.9±0.8×10^10"}, {"measurement": "liver and kidney histopathology", "setting": "[5]", "value": "mild multifocal hepatocellular necrosis and apoptosis in the liver and mild variable tubular attenuation, karyomegaly and epithelial necrosis and apoptosis in the kidney"}, {"measurement": "liver and kidney serum markers", "setting": "[5]", "value": "elevated AST and ALT"}, {"measurement": "weight and physical morbidity", "setting": "[5]; three injections, listed as 77", "value": "no loss in weight or physical morbidities"}, {"measurement": "supernatant concentrations of PSA protein", "setting": "[6]", "value": "reduced"}, {"measurement": "share of DHT-induced transcripts affected", "setting": "[7]", "value": "approximately 30%"}]}
